Patent US7109213B2, “Aminopiperidine compounds, process for their preparation, and pharmaceutical compositions containing them” (Glaxo Group Limited, priority 2002, dated 2006)

Columns and labels:
Assay in all cases: MIC of test compounds against various organisms
Format in all cases: cell-based
E. coli 7623 = conditions: Escherichia coli, range stated for all organisms of the panel
Text: (§1) The MIC (μg/ml) of test compounds against various organisms may be determined: S. epidermidis CL7, S. aureus WCUH29, S. pneumoniae 1629, S. pyogenes CN10, H. influenzae ATCC49247, E.faecalis 2, E. faecium 8, M. catarrhalis Ravisio, E. coli 7623.

E. faecium 8 = conditions: Enterococcus faecium, range stated for all organisms of the panel
Text: as §1

E.faecalis 2 = conditions: Enterococcus faecalis, range stated for all organisms of the panel
Text: as §1

H. influenzae ATCC49247 = conditions: Haemophilus influenzae, range stated for all organisms of the panel
Text: as §1

M. catarrhalis Ravisio = conditions: Moraxella catarrhalis, range stated for all organisms of the panel
Text: as §1

S. aureus WCUH29 = conditions: Staphylococcus aureus, range stated for all organisms of the panel
Text: as §1

S. epidermidis CL7 = conditions: Staphylococcus epidermidis, range stated for all organisms of the panel
Text: as §1

S. pneumoniae 1629 = conditions: Streptococcus pneumoniae, range stated for all organisms of the panel
Text: as §1

S. pyogenes CN10 = conditions: Streptococcus pyogenes, range stated for all organisms of the panel
Text: as §1

Measured: MIC

COc1ccc2nccc([C@@H](O)CN3CCC(NCc4cnc5snnc5c4)C(F)C3)c2n1 (single isomer, unassigned) [Example 3]
0.06 to 16 µg/mL: all assays above
